Source: US11104661B1, “Inhibiting human integrin (α-4) (β-7)” (Morphic Therapeutic, Inc., priority 2019, dated 2021)

Biological target: T1, α4β7 (Homo sapiens, UniProt P13612+P26010)
T1 construct: endogenous in cells; host or cells: RPMI 8866 cells
T1 sequence (P13612 34-1032): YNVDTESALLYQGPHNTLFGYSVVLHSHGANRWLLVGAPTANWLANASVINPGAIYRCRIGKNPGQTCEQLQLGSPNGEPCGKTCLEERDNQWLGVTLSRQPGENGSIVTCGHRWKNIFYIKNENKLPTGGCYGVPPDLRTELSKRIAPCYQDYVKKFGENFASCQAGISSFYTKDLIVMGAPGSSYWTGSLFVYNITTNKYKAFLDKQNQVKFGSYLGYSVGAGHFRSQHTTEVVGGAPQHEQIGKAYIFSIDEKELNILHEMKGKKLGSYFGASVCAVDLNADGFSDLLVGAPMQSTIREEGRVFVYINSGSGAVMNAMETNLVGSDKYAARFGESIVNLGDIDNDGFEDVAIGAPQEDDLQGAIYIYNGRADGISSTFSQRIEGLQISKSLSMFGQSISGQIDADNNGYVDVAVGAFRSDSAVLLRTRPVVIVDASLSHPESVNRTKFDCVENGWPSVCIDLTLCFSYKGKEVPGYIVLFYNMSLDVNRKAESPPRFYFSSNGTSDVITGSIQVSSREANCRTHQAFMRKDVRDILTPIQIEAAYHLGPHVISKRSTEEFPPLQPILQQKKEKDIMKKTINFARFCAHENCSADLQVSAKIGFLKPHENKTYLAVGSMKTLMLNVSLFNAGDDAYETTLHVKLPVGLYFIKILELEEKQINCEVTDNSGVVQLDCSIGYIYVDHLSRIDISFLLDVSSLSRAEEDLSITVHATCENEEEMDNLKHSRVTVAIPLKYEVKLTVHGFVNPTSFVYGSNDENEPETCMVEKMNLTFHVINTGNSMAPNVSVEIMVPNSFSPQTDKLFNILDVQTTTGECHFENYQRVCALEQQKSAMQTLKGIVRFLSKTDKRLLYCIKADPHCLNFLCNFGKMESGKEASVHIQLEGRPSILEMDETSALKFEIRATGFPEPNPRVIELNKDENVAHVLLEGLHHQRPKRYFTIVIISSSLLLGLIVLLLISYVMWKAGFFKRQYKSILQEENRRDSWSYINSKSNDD
T1 sequence (P26010 20-798): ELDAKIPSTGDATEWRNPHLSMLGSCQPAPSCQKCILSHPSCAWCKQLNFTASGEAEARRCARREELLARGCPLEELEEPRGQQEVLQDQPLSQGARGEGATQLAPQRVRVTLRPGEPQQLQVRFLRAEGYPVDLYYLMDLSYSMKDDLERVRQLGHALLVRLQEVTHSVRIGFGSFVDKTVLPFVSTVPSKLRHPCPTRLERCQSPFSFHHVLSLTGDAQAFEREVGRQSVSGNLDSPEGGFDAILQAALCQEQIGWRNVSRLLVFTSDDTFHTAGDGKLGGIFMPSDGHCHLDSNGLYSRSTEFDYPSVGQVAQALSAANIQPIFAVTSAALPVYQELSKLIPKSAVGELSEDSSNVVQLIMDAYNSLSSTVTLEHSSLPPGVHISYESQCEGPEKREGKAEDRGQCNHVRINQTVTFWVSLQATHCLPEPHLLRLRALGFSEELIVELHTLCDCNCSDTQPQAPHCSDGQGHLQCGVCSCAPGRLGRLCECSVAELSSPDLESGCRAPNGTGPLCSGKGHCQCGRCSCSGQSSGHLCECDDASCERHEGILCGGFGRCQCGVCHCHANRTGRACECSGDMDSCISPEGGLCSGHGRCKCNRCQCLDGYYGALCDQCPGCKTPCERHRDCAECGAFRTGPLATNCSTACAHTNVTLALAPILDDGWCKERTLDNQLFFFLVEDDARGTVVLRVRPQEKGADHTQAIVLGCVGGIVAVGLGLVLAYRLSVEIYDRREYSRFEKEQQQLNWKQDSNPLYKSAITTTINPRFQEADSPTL
Experiment: Cell adhesion assay, RPMI8866 cells on MAdCAM coated plates (Example 7)
Format: cell-based
Settings: RPMI8866 cells adhering to recombinant human MAdCAM; Table 4 comparative compounds; read-out: CA Assay (Example 7)
Experimental: Three in vitro assays were used to examine the α4β7 mechanistic process used by cells: 1) ligand:receptor affinity, 2) the avidity of those interactions on a cell's surface, and 3) how those interactions fare under an imposing force. In Example 5, a Fluorescence Polarization (FP) assay is used to measure compound activity through binding competition with the fluorescein-labeled peptide. In Example 6, the potency of compounds against α4β7 is measured in the cell-based ligand binding assay (LBA), using RPMI 8866 cells incubated with the compound samples in competition with soluble MAdCAM-1 ligand. In Example 7, activity of compounds is evaluated in a cell adhesion assay that mechanistically tests what occurs in vivo when trafficking cells utilize α4β7 to adhere to MAdCAM-1 expressing HEVs of the gut during the extravasation process. In the cell adhesion assay of Example 7, a MAdCAMI1-(Fc) is coated on plastic, and α4β7 expressing cells (RPMI-8866) are allowed to adhere to the coated surface in the presence of the test compounds. Next, the force of washing with buffer is applied to cells thereby testing the strength of that adhesion. Unattached cells are removed and the remaining adherent cells are quantified.
Example 7 describes a cell adhesion assay.
To each well of a 96 well plate, 100 ug of recombinant human MAdCAM in 100 ul PBS is added and incubated overnight at 4° C. After incubation MAdCAM is removed by aspiration and 200 ul of PBS+1% BSA is added to block the plate for 2 hours at 37° C. and 5% CO2. During this incubation dilution curves of compound are made in 100% DMSO in 96 well V bottom plates. 1.75 ul of diluted compounds are then transferred to a new 96 well U bottom plate containing 20 ul of assay media (phosphate free DMEM+25 mM HEPES+1% BSA). To this an additional 155 ul of assay media is added with mixing by pipetting up and down. This mixture is allowed to incubate for 15 minutes at 37° C. and 5% CO2. After incubation 175 ul of assay media containing 2e6/mL RPMI8866 cells is added to compound containing wells without mixing and plate is allowed to incubate for another 15 minutes at 37° C. and 5% CO2. During this incubation MAdCAM coated plates are removed from incubator and washed twice with 200 ul PBS+0.1% BSA. […] This plate is then incubated at 37° C. and 5% CO2 for 1 hour. After incubation plates are washed twice with 200 ul and once with 50 ul of phenol free RPMI+1% BSA. A final 50 ul of phenol free RPMI+1% BSA is added to wells after last wash. Next 50 ul of Promega cell titer glow is added to the wells. Plate is incubated on shaker for 2 minutes at 200 RPM followed by another 8 minutes off shaker before having the luminescence read on a Biotek Citation 5 plate reader. Raw data is converted to % inhibition compared to bottom of curve and analyzed using a 4-parameter non linear curve in Prism to determine IC50 and IC90.

SMILES: Cc1cccc(C)c1-c1cccc([C@H](CC(=O)O)NC(=O)[C@H](CC(C)C)n2cc(CN3CC(F)C3)ccc2=O)c1 [drawing 604]
- IC50: > 0.05 µM
